Like-named read-outs stand apart in the source and are kept apart here.
Key:
potassium channels = conditions: cited from earlier work
[1] = test system: rats with middle cerebral artery occlusion (MCAO); experiment: Forelimb placing test, MCAO rats, double crossover study (Example 2); assay type: in vivo, Sprague Dawley rat
Description: 4-AP was evaluated for its ability to promote functional sensorimotor improvement following ischemic stroke in rats with stable motor deficits at times remote from their ischemic events. The animal model mimics the conditions in human ischemic stroke and is produced by middle cerebral artery occlusion (MCAO), which results in extensive infarction in cerebral cortex and striatum, including the cortical spinal tract (white matter).
In particular, the MCAO model in Sprague Dawley rats that was utilized in the experiments presented below mimics the conditions in human ischemic stroke. In this model, focal cerebral infarcts were made by permanent occlusion of the proximal right middle cerebral artery (MCA) using a modification of the method of Tamura et al. (No To Shinkei 1986; 38:747-51). Briefly, the temporalis muscle was bisected and reflected through an incision made midway between the eye and the ear canal. The proximal MCA was exposed through a subtemporal craniectomy without removing the zygomatic arch and without transecting the facial nerve.
Dosing and Treatment: Rats were treated in accordance with the dosing schedule shown in Tables 2A, 2B, 3 and FIG. 2, with each Phase being a two week period of time. A solution of 4-AP was used in this experiment. Dosing was started at 4 weeks after ischemic event. 4-aminopyridine was dissolved in water for injection (WFI, Cellgro) and sterile filtered. Final concentrations of 0.315 mg/mL or 1.0 mg/mL of 4-aminopyridine were delivered at 2 mL/kg by gastric gavage, resulting in final doses of 0.63 mg/kg and 2 mg/kg respectively. Vehicle control treatment was WFI delivered at 2 mL/kg by gastric gavage. This study was divided into three treatment phases (1-3) with each randomized cohort of animals receiving a different dose level during each of the treatment phases. Starting on day 30 after MCAO (Day 30, start of phase 1), the animals received gavage dosing of solutions (2 mL/kg) approximately 12 hours apart, for a total of five doses. The same schedule was repeated with different treatment on Day 44 and Day 58 for phase 2 and 3 of the study, respectively. Animals were not treated during the 10 days between phases (washout period).
Treatment groups: Dosing was started 4 weeks after MCAO surgery. During these 4 weeks, weekly behavioral assessments, as defined below, were performed. Two dose levels of 4-AP plus vehicle control were assessed, with treatment starting at 4 weeks after ischemic event. […] Following the final behavioral assessment, drug was withdrawn for 10 or 11 days, behavior was re-assessed, and then animals were re-challenged with a cross-over treatment (Phase 2 of Table 2B) as described in Tables 2A, 2B and 3, followed by the same behavioral testing and dosing regimen. […]

[2] = test system: rats with middle cerebral artery occlusion (MCAO); experiment: Infarct volume measurement, MCAO rats (Example 17); assay type: in vivo, Sprague Dawley rat
Description: Infarct measurement: Brains were embedded in paraffin and 5 micron thick coronal sections were cut using a microtome. Sections were stained with hematoxylin and eosin (H&E), using standard methods. Seven coronal sections (+4.7, +2.7, +0.7, −1.3, −3.3, −5.3 and −7.3, compared to bregma respectively) from each brain were photographed by a digital camera, and the infarct area on each slice was determined by NIH Image (Image J) using the “indirect method” (area of the intact contralateral [left] hemisphere−area of intact regions of the ipsilateral [right] hemisphere) to correct for brain edema. Infarct areas were then summed among slices and multiplied by slice thickness (the distance between sections) to give total infarct volume, which was expressed as a percentage of intact contralateral hemispheric volume.
Euthanasia and post-mortem processing: At day 70 after MCAO rats were anesthetized as described in Example 2, above.
Infarct measurement: Infarct measurement was performed as described in Example 2, above.
Statistical Methods: Changes from pre-treatment baseline values (Day 56) were calculated for each behavioral score at each time point assessed after dosing. Mean behavioral parameter data were subject to Analysis of Variance (ANOVA). Infarct volume data were analyzed by ANOVA. All data were expressed as means±SEM.

**Q.** Which results are given for `Nc1ccncc1` [4-aminopyridine]?
**A.** potassium channel blocking activity (potassium channels; at high concentration (millimolar concentrations)): broad-spectrum blocker of potassium channels; potassium channel blocking activity (potassium channels; at plasma concentrations obtained in clinical studies (<1 microM)): selective for certain types of these channels; Forelimb function, low dose compared to vehicle, first mixed model ([1]; 0.63 mg/kg b.i.d. p.o., level 0.05): didn't show statistical significant improvement; Forelimb function, low dose compared to vehicle, second mixed model ([1]; 0.63 mg/kg b.i.d. p.o., p<0.0001): significant difference; Forelimb function, high dose compared to low dose and vehicle ([1]; 2 mg/kg b.i.d. p.o., first mixed model, p=0.0334 vs low, p=0.001 vs vehicle): significantly improved the forelimb function; Effect on forelimb function (FIG. 3) ([1]; low or high dose, 4 weeks post ischemic brain injury, dose-responsive, reversible): effective to improve forelimb function; Mean (SE) Infarct Volume (%) ([2]; 4-AP dose escalation 0.5, 1 and 2 mg/kg p.o. b.i.d. Days 56-65 after MCAO): 40.0 (2.3) %; Infarct volume, 4-aminopyridine versus vehicle (water) ([2]; Day 70 after MCAO): no differences in infarct volume were observed

— patent publication US20160067232A1, “METHODS FOR TREATING A STROKE-RELATED SENSORIMOTOR IMPAIRMENT USING AMINOPYRIDINES” (Acorda Therapeutics, Inc., priority 2011, published 2016)
